From US20050176733A1, “Chk-1 inhibitors” (Millennium Pharmaceuticals, Inc., priority 2004, published 2005)

Target: T1, Recombinant human Chk-1 (GST-Chk-1) (Homo sapiens, UniProt O14757)
T1 construct: made in house; host or cells: insect cells (baculovirus, Bac-to-Bac expression system)
T1 sequence (O14757 1-476): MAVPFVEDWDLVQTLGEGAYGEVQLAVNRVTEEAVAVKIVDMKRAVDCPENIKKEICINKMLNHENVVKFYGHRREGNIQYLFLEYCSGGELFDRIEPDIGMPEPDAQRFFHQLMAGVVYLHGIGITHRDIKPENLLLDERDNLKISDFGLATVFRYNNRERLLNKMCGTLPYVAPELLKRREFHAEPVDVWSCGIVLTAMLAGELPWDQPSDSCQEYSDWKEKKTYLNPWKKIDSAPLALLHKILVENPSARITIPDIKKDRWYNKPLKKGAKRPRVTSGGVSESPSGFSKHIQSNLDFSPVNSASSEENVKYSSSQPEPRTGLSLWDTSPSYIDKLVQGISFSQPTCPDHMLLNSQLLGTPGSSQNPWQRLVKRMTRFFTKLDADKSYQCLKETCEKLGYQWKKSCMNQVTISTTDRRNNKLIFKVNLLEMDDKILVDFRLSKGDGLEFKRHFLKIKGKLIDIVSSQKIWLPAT
Assay: Chk-1 FlashPlate Kinase Assay
Assay type: biochemical
Details: for inhibition at 1 µM: at a concentration of 1.0 μM; for inhibition at 10 µM: at a concentration of 10 μM, read-out: inhibition of Chk-1 (Chk-1 induced 33P incorporation)
Method: Recombinant human Chk-1 was expressed as a fusion protein with glutathione S-transferase at the amino-terminus (GST-Chk-1) using standard baculovirus vectors and (Bac-to-Bac®) insect cell expression system purchased from GIBCO™ Invitrogen.
Recombinant protein expressed in insect cells was purified using glutathione sepharose (Amersham Biotech) using standard procedures described by the manufacturer.
Assays (25 μL) contained 8.7 nM GST-Chk-1, 10 mM MES, 0.1 mM ethylene glycol-bis(β-aminoethylether)-N,N,N′,N′-tetraacetic acid (EGTA, pH 8.0), 2 mM DTT, 0.05% Tween 20, 3 μM peptide substrate (Biotin-ILSRRPSYRKILND-free acid) (SEQ ID NO: 1), 1 μM ATP, 0.4 μCi ^33P-γ-ATP (NEN), 4% DMSO. Reactions were incubated for 30 minutes at room temperature, terminated with 50 μL of 50 mM EDTA and […] were transferred to streptavidin-coated FlashPlates® (NEN) and incubated for 1 hour at room temperature. Plates were washed with phosphate buffered saline containing 0.01% Tween-20 and 10 mM sodium pyrophosphate. Plates were dried, sealed with Topseal™ (NEN) and amount of ^33P incorporated into the peptide substrate measure using a Packard Topcount® NXT™ scintillation counter with standard settings.

| Structure (SMILES) | inhibition at 1 µM | inhibition at 10 µM |
| --- | --- | --- |
| Cc1cnc(NC(=O)Nc2cc(Cl)ccc2OCCCNC(=O)c2ccc(N(C)C)cc2)cn1 [Compound I-15, N-(3-{4-Chloro-2-[3-(5-methyl-pyrazin-2-yl)-ureido]-phenoxy}-propyl)-4-dimethylamino-benzaminde] | ≥ 50% | ≥ 50% |
| CN1CCN(C(=O)CCCOc2ccc(Cl)cc2NC(=O)Nc2ccc(C#N)cn2)CC1 [Compound I-14, 1-{5-Chloro-2-[4-(4-methyl-piperazin-1-yl)-4-oxo-butoxy]-phenyl}-3-(5-cyano-pyridin-2-yl)-urea] | ≥ 50% | ≥ 50% |
| Cc1cnc(NC(=O)Nc2cc(Cl)ccc2OCCCNC(=O)N2CCOCC2)cn1 [Compound I-5, Morpholine-4-carboxylic acid (3-{4-chloro-2-[3-(5-methyl-pyrazin-2-yl)-ureido]-phenoxy}-propyl)-amide] | ≥ 50% | ≥ 50% |
| Cc1cnc(NC(=O)Nc2cc(Cl)ccc2OCC(=O)N2CCOCC2)cn1 [Compound I-8, 1-[5-Chloro-2-(2-morpholin-4-yl-2-oxo-ethoxy)-phenyl]-3-(5-methyl-pyrazin-2-yl)-urea] | ≥ 50% | ≥ 50% |
| Cc1cnc(NC(=O)Nc2cc(Cl)ccc2OCCCNC(=O)C(N)c2ccc(Cl)cc2)cn1 (centres unmarked) [Compound I-111, 2-Amino-N-(3-{4-chloro-2-[3-(5-methyl-pyrazin-2-yl)-ureido]-phenoxy}-propyl)-2-(4-chloro-phenyl)-acetamide] | ≥ 50% | ≥ 50% |
| N#Cc1ccc(NC(=O)Nc2cc(Cl)ccc2OCCCC(=O)N2CCOCC2)nc1 [Compound I-110, 1-[5-Chloro-2-(4-morpholin-4-yl-4-oxo-butoxy)-phenyl]-3-(5-cyano-pyridin-2-yl)-urea] |  | ≥ 50% |
| CN1CCN(C(=O)NCCCOc2ccc(Cl)cc2NC(=O)Nc2ccc(C#N)cn2)CC1 [Compound I-18, 4-Methyl-piperazine-1-carboxylic acid (3-{4-chloro-2-[3-(5-cyano-pyridin-2-yl)-ureido]-phenoxy}-propyl)-amide] | ≥ 50% | ≥ 50% |
| Cc1cnc(NC(=O)Nc2cc(C(=O)NCCN(C)C)ccc2OCCCNC(=O)c2ccc(Cl)cc2)cn1 [Compound I-9, 4-[3-(4-Chloro-benzoylamino)-propoxy]-N-(2-dimethylamino-ethyl)-3-[3-(5-methyl-pyrazin-2-yl)-ureido]-benzamide] | ≥ 50% | ≥ 50% |
| Cc1cnc(NC(=O)Nc2cc(Cl)ccc2OCCCNC(=O)CN2CCOCC2)cn1 [Compound I-6, N-(3-{4-Chloro-2-[3-(5-methyl-pyrazin-2-yl)-ureido]-phenoxy}-propyl)-2-morpholin-4-yl-acetamide] | ≥ 50% | ≥ 50% |
| Cc1cnc(NC(=O)Nc2ccc(N3CCCC3)cc2OCCCNC(=O)CN(C)C)cn1 [Compound I-11, 2-Dimethylamino-N-(3-{2-[3-(5-methyl-pyrazin-2-yl)-ureido]-5-pyrrolidin-1-yl-phenoxy}-propyl)-acetamide] | ≥ 50% | ≥ 50% |
| CN(C)CC(=O)NCCCOc1ccc(Cl)cc1NC(=O)Nc1ccc(C#N)cn1 [Compound I-39, N-(3-{4-Chloro-2-[3-(5-cyano-pyridin-2-yl)-ureido]-phenoxy}-propyl)-2-dimethylamino-acetamide] | ≥ 50% | ≥ 50% |
| NC(=O)c1ccc(NC(=O)Nc2cc(Cl)ccc2OCCCNC(=O)[C@@H](N)Cc2ccc(Cl)cc2)nc1 [Compound I-2, 6-[3-(2-{3-[2-Amino-3-(4-chloro-phenyl)-propionylamino]-propoxy}-5-chloro-phenyl)-ureido]-nicotinamide] | ≥ 50% | ≥ 50% |
| Cc1cnc(NC(=O)Nc2cc(Cl)ccc2OCCCNC(=O)[C@@H](N)Cc2ccc(Cl)cc2)cn1 [Compound I-16, 2-Amino-N-(3-{4-chloro-2-[3-(5-methyl-pyrazin-2-yl)-ureido]-phenoxy}-propyl)-3-(4-chloro-phenyl)-propionamide] | ≥ 50% | ≥ 50% |
| Cc1cnc(NC(=O)Nc2cc(Cl)ccc2OCCCNC(=O)CN2CCN(C)CC2)cn1 [Compound I-7, N-(3-{4-Chloro-2-[3-(5-methyl-pyrazin-2-yl)-ureido]-phenoxy}-propyl)-2-(4-methyl-piperazin-1-yl)-acetamide] | ≥ 50% | ≥ 50% |
| Cc1cnc(NC(=O)Nc2cc(C(=O)N3CCN(C)CC3)ccc2OCCCNC(=O)c2ccc(Cl)cc2)cn1 [Compound I-20, 4-Chloro-N-(3-{4-(4-methyl-piperazine-1-carbonyl)-2-[3-(5-methyl-pyrazin-2-yl)-ureido]-phenoxy}-propyl)-benzamide] |  | ≥ 50% |
| Cc1cnc(NC(=O)Nc2ccc(N3CCN(C)CC3)cc2OCCCNC(=O)c2ccc(Cl)cc2)cn1 [Compound I-13, 4-Chloro-N-(3-{5-(4-methyl-piperazin-1-yl)-2-[3-(5-methyl-pyrazin-2-yl)-ureido]-phenoxy}-propyl)-benzamide] | ≥ 50% | ≥ 50% |
| Cc1cnc(NC(=O)Nc2ccc(N3CCCC3)cc2OCCCNC(=O)c2ccc(Cl)cc2)cn1 [Compound I-10, 4-Chloro-N-(3-{2-[3-(5-methyl-pyrazin-2-yl)-ureido]-5-pyrrolidin-1-yl-phenoxy}-propyl)-benzamide] |  | ≥ 50% |
| Cc1cnc(NC(=O)Nc2cc(Cl)ccc2OCCCNC(=O)CN(C)C)cn1 [Compound I-4, N-(3-{4-Chloro-2-[3-(5-methyl-pyrazin-2-yl)-ureido]-phenoxy}-propyl)-2-dimethylamino-acetamide] | ≥ 50% | ≥ 50% |
| N#Cc1ccc(NC(=O)Nc2cc(Cl)ccc2OCCCNC(=O)N2CCOCC2)nc1 [Compound I-12, Morpholine-4-carboxylic acid (3-{4-chloro-2-[3-(5-cyano-pyridin-2-yl)-ureido]-phenoxy}-propyl)-amide] | ≥ 50% | ≥ 50% |
